Assay results taken from US20250214991A1 (Oncopia Therapeutics, Inc. d/b/a/ SK Life Science Labs, priority 2022, published 2025).
Where a name gives a salt, the structure may show the parent alone. Read-outs that look alike come from different tables or passages of the source.

Key:
Format in all cases: cell-based
[1] = molecular target: T1, IKZF2 (Homo sapiens (Human), UniProt Q96SW2+Q9UKS7); assay: In vitro IKZF2 FACS Assay in Jurkat cells; details: 24 hrs; for DC50: half maximal degradation concentration; for Dmax: maximal degradation percentage
T1 sequence (Q9UKS7 whole entry): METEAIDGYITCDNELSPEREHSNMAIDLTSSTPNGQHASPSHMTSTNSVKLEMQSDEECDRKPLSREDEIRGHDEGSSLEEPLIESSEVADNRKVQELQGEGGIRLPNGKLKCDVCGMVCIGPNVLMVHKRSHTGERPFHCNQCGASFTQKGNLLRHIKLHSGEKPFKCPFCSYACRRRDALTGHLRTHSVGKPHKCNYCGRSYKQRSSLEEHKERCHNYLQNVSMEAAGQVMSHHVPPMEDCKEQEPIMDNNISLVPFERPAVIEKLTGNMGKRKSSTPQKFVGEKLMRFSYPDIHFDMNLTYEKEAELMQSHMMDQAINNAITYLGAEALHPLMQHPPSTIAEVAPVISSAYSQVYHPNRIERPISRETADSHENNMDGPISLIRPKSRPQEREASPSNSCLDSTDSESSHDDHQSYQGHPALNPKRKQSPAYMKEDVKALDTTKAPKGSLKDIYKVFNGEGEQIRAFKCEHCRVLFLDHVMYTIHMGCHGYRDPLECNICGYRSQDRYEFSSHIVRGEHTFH
T1 sequence (Q96SW2 whole entry): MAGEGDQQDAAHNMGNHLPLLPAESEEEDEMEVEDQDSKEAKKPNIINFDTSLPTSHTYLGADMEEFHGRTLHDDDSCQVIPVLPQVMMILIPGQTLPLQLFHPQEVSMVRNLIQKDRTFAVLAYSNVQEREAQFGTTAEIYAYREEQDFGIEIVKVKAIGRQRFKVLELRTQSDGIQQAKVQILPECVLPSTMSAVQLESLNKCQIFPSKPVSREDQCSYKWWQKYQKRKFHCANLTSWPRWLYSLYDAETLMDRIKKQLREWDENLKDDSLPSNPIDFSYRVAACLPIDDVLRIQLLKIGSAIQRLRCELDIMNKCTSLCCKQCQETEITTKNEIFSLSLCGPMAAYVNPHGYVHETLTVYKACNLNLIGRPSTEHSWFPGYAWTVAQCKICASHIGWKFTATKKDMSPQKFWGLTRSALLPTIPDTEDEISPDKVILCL
T1 sequence (Q16531 2-1140 partner): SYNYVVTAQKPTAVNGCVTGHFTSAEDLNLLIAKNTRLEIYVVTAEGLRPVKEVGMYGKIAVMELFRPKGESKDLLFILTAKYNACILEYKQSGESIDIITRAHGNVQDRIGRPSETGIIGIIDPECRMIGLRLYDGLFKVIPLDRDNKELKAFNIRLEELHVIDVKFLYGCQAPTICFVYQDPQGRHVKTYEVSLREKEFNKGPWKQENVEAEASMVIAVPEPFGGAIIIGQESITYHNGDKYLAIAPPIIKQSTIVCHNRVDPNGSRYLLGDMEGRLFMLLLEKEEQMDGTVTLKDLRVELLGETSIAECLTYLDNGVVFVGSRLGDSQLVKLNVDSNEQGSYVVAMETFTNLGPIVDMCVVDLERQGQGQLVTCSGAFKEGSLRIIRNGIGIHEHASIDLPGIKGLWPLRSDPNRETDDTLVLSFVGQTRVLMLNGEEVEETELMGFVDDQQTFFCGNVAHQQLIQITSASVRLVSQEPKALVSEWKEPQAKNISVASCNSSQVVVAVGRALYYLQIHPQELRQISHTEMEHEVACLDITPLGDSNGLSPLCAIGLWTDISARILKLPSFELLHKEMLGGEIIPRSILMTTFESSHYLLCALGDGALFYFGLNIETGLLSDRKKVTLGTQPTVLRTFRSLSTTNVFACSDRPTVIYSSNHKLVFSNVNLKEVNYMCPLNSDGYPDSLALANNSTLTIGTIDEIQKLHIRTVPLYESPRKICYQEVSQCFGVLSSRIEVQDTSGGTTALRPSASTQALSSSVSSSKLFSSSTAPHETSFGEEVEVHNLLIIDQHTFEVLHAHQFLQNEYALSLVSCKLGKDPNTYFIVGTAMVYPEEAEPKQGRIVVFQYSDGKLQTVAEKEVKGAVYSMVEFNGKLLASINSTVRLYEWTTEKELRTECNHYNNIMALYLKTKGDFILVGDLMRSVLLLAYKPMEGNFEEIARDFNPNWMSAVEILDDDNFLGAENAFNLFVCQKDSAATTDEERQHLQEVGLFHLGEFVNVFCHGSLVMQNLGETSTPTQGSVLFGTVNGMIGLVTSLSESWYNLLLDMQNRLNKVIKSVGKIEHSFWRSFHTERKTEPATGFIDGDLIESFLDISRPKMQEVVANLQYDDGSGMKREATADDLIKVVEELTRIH
Procedure: In vitro IKZF2 FACS Assay
DC50, A: <1 nM; B: 1-10 nM; C: 10-100 nM; D: 100-1000 nM; E: >1000 nM. Dmax, A: >80%; B: 60-80%; C: 40-60%; D: 20-40%; E: <20%.

[2] = molecular target: T1, IKZF2; assay: In vitro IKZF2 HiBit Assay (HEK293T Flp-in-HiBiT cells)
Outline: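 HEK293T Flp-in cells carrying an endogenous N-terminal HiBiT tag on IKZF2 were exposed to compound for 6 h at 0.1% DMSO. The dilution series was 11 doses at 3-fold, diluted from 1 mM. Nano-Glo HiBiT lytic luminescence, normalized to DMSO, gave DC50 for 50% degradation and Dmax across the concentration range, both reported in letter bins.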

[3] = molecular target: IKZF1 (Homo sapiens (Human), UniProt Q13422+Q96SW2); assay: In vitro IKZF1 HiBit Assay (HEK293T Flp-in-HiBiT-IKZF1 stable cell line)
Chain of IKZF1 (Q13422 whole entry): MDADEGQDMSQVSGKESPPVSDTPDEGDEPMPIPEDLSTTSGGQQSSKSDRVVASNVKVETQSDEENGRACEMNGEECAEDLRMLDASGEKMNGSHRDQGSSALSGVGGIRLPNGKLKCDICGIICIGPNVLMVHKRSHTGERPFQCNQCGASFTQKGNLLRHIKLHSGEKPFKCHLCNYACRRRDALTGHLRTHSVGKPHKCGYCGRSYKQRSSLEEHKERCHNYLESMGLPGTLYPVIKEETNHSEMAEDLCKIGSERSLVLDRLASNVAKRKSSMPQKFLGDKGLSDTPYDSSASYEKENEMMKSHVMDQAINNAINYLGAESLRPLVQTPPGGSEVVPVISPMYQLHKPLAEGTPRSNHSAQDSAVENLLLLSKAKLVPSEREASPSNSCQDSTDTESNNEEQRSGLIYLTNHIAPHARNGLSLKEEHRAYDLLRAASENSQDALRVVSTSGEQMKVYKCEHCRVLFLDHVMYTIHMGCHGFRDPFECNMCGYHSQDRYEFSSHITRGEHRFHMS
Chain of IKZF1 (Q96SW2 whole entry): as the sequence (Q96SW2 whole entry) above
Chain of IKZF1 (Q16531 2-1140 partner): as the sequence (Q16531 2-1140 partner) above
Outline: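 HEK293T Flp-in cells carrying N-terminal HiBiT-tagged IKZF1 were exposed to compound (0.1% DMSO) for 6 h at 3000 cells/well. HiBiT luminescence was read after lytic LgBiT detection. DC50 and Dmax were taken from DMSO-normalized dose-response curves.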

[4] = HEK293T Flp-in-HiBiT cells, 6 hrs incubation; read-out: IKZF2 HiBit DC50
[5] = HEK-293T; HEK293T Flp-in-HiBiT cells, 6 hrs incubation; read-out: IKZF2 HiBit Dmax (%)
[6] = HEK293T Flp-in-HiBiT-IKZF1 stable cell line, 6 hrs incubation; read-out: IKZF1 HiBit DC50
[7] = HEK-293T; HEK293T Flp-in-HiBiT-IKZF1 stable cell line, 6 hrs incubation; read-out: IKZF1 HiBit Dmax (%)

Compound	DC50 [1] [nM]	Dmax [1] [%]	DC50 [2, 4] [nM]	Dmax [2, 5] [%]	DC50 [3, 6] [nM]	Dmax [3, 7] [%]	Dmax ([2]; HEK-293T, read-out: IKZF2 HiBit Dmax (%)) [%]	DC50 ([2]; read-out: IKZF2 HiBit DC50; HEK293T Flp-in-HiBiT cells, 6 hrs incubation) [nM]	Dmax ([3]; HEK-293T, read-out: IKZF1 HiBit Dmax (%)) [%]	DC50 ([3]; read-out: IKZF1 HiBit DC50; HEK293T Flp-in-HiBiT-IKZF1 stable cell line, 6 hrs incubation) [nM]
Cc1nn(C2COC2)c2nc(-c3ccc4c(c3)CN(C3CCC(=O)NC3=O)C4=O)cc(CN3CCCC3)c12 (stereo not drawn) [Example 246, 3-(5-(3-methyl-1-(oxetan-3-yl)-4-(pyrrolidin-1-ylmethyl)-1H-pyrazolo[3,4-b]pyridin-6-yl)-1-oxoisoindolin-2-yl) piperidine-2,6-dione]	1 to 10	> 80	1 to 10	> 80	> 10000	< 20				
COC1CC(n2ccc3c(CN4CCCC4)cc(-c4ccc5c(c4)CN(C4CCC(=O)NC4=O)C5=O)nc32)C1 (stereo not drawn) [Example 255, 3-(5-(1-(3-methoxycyclobutyl)-4-(pyrrolidin-1-ylmethyl)-1H-pyrrolo[2,3-b]pyridin-6-yl)-1-oxoisoindolin-2-yl) piperidine-2,6-dione]	1 to 10	> 80	1 to 10	> 80	10 to 100	20 to 40				
CC1(C)CCCN1Cc1cc(-c2ccc3c(c2)CN(C2CCC(=O)NC2=O)C3=O)nc2c1ccn2C1COC1 (stereo not drawn) [Example 254, 3-(5-(4-((2,2-dimethylpyrrolidin-1-yl)methyl)-1-(oxetan-3-yl)-1H-pyrrolo[2,3-b]pyridin-6-yl)-1-oxoisoindolin-2-yl) piperidine-2,6-dione]	10 to 100	60 to 80					60 to 80	1 to 10	< 20	> 10000
Cn1cc(-n2ccc3c(CN4CCCC4)cc(-c4ccc5c(c4)CN(C4CCC(=O)NC4=O)C5=O)nc32)cn1 (stereo not drawn) [Example 248, 3-(5-(1-(1-methyl-1H-pyrazol-4-yl)-4-(pyrrolidin-1-ylmethyl)-1H-pyrrolo[2,3-b]pyridin-6-yl)-1-oxoisoindolin-2-yl) piperidine-2,6-dione]	< 1	> 80	< 1	> 80	100 to 1000	20 to 40				
O=C1CCC(N2Cc3cc(-c4nc(CN5CCCC5)c5ccn(C6CS(=O)(=O)C6)c5n4)ccc3C2=O)C(=O)N1 (stereo not drawn) [Example 220, 3-(5-(7-(1,1-dioxidothietan-3-yl)-4-(pyrrolidin-1-ylmethyl)-7H-pyrrolo[2,3-d]pyrimidin-2-yl)-1-oxoisoindolin-2-yl) piperidine-2,6-dione]	10 to 100	40 to 60	10 to 100	60 to 80	> 10000	< 20				
O=C1CCC(N2Cc3cc(-c4cc(CN5CCCC5)c5ccn(C6CC(F)(F)C6)c5n4)ccc3C2=O)C(=O)N1 (stereo not drawn) [Example 274, 3-(5-(1-(3,3-difluorocyclobutyl)-4-(pyrrolidin-1-ylmethyl)-1H-pyrrolo[2,3-b]pyridin-6-yl)-1-oxoisoindolin-2-yl) piperidine-2,6-dione]	1 to 10	60 to 80	< 1	> 80	1000 to 10000	20 to 40				
Nc1n[nH]c2c(CN3CCCC3)cc(-c3ccc4c(c3)CN(C3CCC(=O)NC3=O)C4=O)nc12 (stereo not drawn) [Example 151, 3-(5-(3-amino-7-(pyrrolidin-1-ylmethyl)-1H-pyrazolo[4,3-b]pyridin-5-yl)-1-oxoisoindolin-2-yl) piperidine-2,6-dione]	1 to 10	> 80	1 to 10	> 80	> 10000	< 20				
O=C1CCC(N2Cc3c(ccc(-c4cc(CN5CC6COCC6C5)c5ccn(C6CS(=O)(=O)C6)c5n4)c3F)C2=O)C(=O)N1 (stereo not drawn) [Example 269, 3-(5-(1-(1,1-dioxidothietan-3-yl)-4-((tetrahydro-1H-furo[3,4-c]pyrrol-5 (3H)-yl)methyl)-1H-pyrrolo[2,3-b]pyridin-6-yl)-4-fluoro-1-oxoisoindolin-2-yl) piperidine-2,6-dione]	1 to 10	> 80	1 to 10	> 80	10 to 100	20 to 40				
COC1CCN(Cc2cc(-c3ccc4c(c3F)CN(C3CCC(=O)NC3=O)C4=O)nc3c2ccn3C2CS(=O)(=O)C2)CC1 (stereo not drawn) [Example 266, 3-(5-(1-(1,1-dioxidothietan-3-yl)-4-((4-methoxypiperidin-1-yl)methyl)-1H-pyrrolo[2,3-b]pyridin-6-yl)-4-fluoro-1-oxoisoindolin-2-yl) piperidine-2,6-dione formate]	1 to 10	> 80	1 to 10	> 80	10 to 100	40 to 60				
CCNc1n[nH]c2c(CN3CCCC3)cc(-c3ccc4c(c3)CN(C3CCC(=O)NC3=O)C4=O)nc12 (stereo not drawn) [Example 199, 3-(5-(3-(ethylamino)-7-(pyrrolidin-1-ylmethyl)-1H-pyrazolo[4,3-b]pyridin-5-yl)-1-oxoisoindolin-2-yl) piperidine-2,6-dione]	10 to 100	60 to 80	1 to 10	> 80	10 to 100	20 to 40				
Cn1ccc(-n2ccc3c(CN4CCCC4)cc(-c4ccc5c(c4)CN([C@H]4CCC(=O)NC4=O)C5=O)nc32)n1 [Example 265, (S)-3-(5-(1-(1-methyl-1H-pyrazol-3-yl)-4-(pyrrolidin-1-ylmethyl)-1H-pyrrolo[2,3-b]pyridin-6-yl)-1-oxoisoindolin-2-yl) piperidine-2,6-dione]	1 to 10	60 to 80	1 to 10	> 80	> 10000	< 20				
Cn1ccc2c(CN3CCCC3)c(Cl)c(-c3ccc4c(c3F)CN(C3CCC(=O)NC3=O)C4=O)nc21 (stereo not drawn) [Example 277, 3-(5-(5-chloro-1-methyl-4-(pyrrolidin-1-ylmethyl)-1H-pyrrolo[2,3-b]pyridin-6-yl)-4-fluoro-1-oxoisoindolin-2-yl) piperidine-2,6-dione]	1 to 10	> 80	< 1	> 80	> 10000	< 20				
CN1CC(n2ncc3c(CN4CCCC4)cc(-c4ccc5c(c4)CN(C4CCC(=O)NC4=O)C5=O)nc32)C1 (stereo not drawn) [Example 261, 3-(5-(1-(1-methylazetidin-3-yl)-4-(pyrrolidin-1-ylmethyl)-1H-pyrazolo[3,4-b]pyridin-6-yl)-1-oxoisoindolin-2-yl) piperidine-2,6-dione]	1 to 10	> 80	1 to 10	> 80	10 to 100	60 to 80				
CNc1n[nH]c2c(CN3CCCC3)cc(-c3ccc4c(c3)CN(C3CCC(=O)NC3=O)C4=O)nc12 (stereo not drawn) [Example 181, 3-(5-(3-(methylamino)-7-(pyrrolidin-1-ylmethyl)-1H-pyrazolo[4,3-b]pyridin-5-yl)-1-oxoisoindolin-2-yl) piperidine-2,6-dione]	1 to 10	> 80	1 to 10	> 80	10 to 100	40 to 60				
CN1CC(n2ccc3c(CN4CCCC4)cc(-c4ccc5c(c4F)CN(C4CCC(=O)NC4=O)C5=O)nc32)C1 (stereo not drawn) [Example 260, 3-(4-fluoro-5-(1-(1-methylazetidin-3-yl)-4-(pyrrolidin-1-ylmethyl)-1H-pyrrolo[2,3-b]pyridin-6-yl)-1-oxoisoindolin-2-yl) piperidine-2,6-dione]	1 to 10	> 80	1 to 10	> 80	10 to 100	60 to 80				
CC1c2cc(-c3cc(CN4CCCC4)c4ccn(C5CS(=O)(=O)C5)c4n3)ccc2C(=O)N1C1CCC(=O)NC1=O (stereo not drawn) [Example 292, 3-(5-(1-(1,1-dioxidothietan-3-yl)-4-(pyrrolidin-1-ylmethyl)-1H-pyrrolo[2,3-b]pyridin-6-yl)-3-methyl-1-oxoisoindolin-2-yl) piperidine-2,6-dione]	1 to 10	> 80	1 to 10	> 80	10 to 100	20 to 40				
CC(C)Nc1n[nH]c2c(CN3CCCC3)cc(-c3ccc4c(c3)C(C)N(C3CCC(=O)NC3=O)C4=O)nc12 (stereo not drawn) [Example 293, 3-(5-(3-(isopropylamino)-7-(pyrrolidin-1-ylmethyl)-1H-pyrazolo[4,3-b]pyridin-5-yl)-3-methyl-1-oxoisoindolin-2-vl) piperidine-2,6-dione]	1 to 10	> 80	1 to 10	> 80	> 10000	< 20				
COC[C@@H]1CCCN1Cc1cc(-c2ccc3c(c2)CN(C2CCC(=O)NC2=O)C3=O)nc2c1ccn2C1COC1 (stereo partly drawn) [Example 250, 3-(5-(4-(((S)-2-(methoxymethyl)pyrrolidin-1-yl)methyl)-1-(oxetan-3-yl)-1H-pyrrolo[2,3-b]pyridin-6-yl)-1-oxoisoindolin-2-yl) piperidine-2,6-dione]	1 to 10	60 to 80	1 to 10	60 to 80	> 10000	< 20				
